Measurements as given in patent publication US8765820B2, “Tranylcypromine derivatives as inhibitors of histone demethylases LSD1 and/or LSD2” (Universita Degli Studi di Roma “La Sapienza”, priority 2010, dated 2014).
pKi: −log10 of the molar value. Where a name gives a salt, the structure may show the parent alone. Read-outs that look alike come from different tables or passages of the source.

What was measured:
Mouse recombinant LSD2 = Mouse recombinant LSD2 (Mus musculus (Mouse), UniProt Q8CIG3); experiment: LSD2 inhibition, peroxidase-coupled assay with histone H3 peptide di-methylated at Lys4; assay type: biochemical; settings: for pKi: pH 8.0, steady-state competition experiments, errors within 30%
Human recombinant MAO B = Human recombinant MAO B (Homo sapiens (Human), UniProt P27338); experiment: MAO B inhibition, peroxidase-coupled assay with benzylamine as substrate; assay type: biochemical; settings: for MAO B Ki: 25° C., pH 7.5, no inhibition = no detectable inhibition at inhibitor saturated solutions
Human recombinant MAO A = Human recombinant MAO A (Homo sapiens (Human), UniProt P21397); experiment: MAO A inhibition, peroxidase-coupled assay with kynuramine as substrate; assay type: biochemical
[1] = molecular target: Human recombinant LSD1/CoREST (Homo sapiens (Human), UniProt O60341); experiment: LSD1 inhibition, peroxidase-coupled assay with histone H3 peptide mono-methylated at Lys4; assay type: biochemical
NB4 cells = settings: RA 10 nM in the absence of 6e

Sequence of Mouse recombinant LSD2 (Q8CIG3 whole entry): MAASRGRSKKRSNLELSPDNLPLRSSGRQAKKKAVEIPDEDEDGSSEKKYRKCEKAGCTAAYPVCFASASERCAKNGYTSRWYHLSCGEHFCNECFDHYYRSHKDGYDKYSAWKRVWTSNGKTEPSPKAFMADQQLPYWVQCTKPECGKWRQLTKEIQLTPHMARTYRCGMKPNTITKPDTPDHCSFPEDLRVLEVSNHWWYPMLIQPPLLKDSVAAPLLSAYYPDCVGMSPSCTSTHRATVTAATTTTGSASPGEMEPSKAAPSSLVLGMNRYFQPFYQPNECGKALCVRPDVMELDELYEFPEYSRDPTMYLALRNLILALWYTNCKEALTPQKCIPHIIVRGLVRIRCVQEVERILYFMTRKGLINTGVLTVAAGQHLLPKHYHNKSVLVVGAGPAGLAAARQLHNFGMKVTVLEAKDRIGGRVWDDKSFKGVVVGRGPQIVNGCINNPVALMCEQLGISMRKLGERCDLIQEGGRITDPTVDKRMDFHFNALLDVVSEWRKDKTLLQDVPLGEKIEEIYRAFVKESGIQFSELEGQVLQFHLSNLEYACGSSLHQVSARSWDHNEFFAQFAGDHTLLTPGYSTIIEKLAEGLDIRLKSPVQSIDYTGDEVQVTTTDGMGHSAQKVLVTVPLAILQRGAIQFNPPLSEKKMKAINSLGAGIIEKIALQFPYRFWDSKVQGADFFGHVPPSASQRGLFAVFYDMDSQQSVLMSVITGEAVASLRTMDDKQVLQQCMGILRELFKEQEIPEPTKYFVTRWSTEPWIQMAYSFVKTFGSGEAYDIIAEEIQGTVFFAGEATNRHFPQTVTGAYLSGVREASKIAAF
Sequence of Human recombinant MAO A (P21397 whole entry, looked up): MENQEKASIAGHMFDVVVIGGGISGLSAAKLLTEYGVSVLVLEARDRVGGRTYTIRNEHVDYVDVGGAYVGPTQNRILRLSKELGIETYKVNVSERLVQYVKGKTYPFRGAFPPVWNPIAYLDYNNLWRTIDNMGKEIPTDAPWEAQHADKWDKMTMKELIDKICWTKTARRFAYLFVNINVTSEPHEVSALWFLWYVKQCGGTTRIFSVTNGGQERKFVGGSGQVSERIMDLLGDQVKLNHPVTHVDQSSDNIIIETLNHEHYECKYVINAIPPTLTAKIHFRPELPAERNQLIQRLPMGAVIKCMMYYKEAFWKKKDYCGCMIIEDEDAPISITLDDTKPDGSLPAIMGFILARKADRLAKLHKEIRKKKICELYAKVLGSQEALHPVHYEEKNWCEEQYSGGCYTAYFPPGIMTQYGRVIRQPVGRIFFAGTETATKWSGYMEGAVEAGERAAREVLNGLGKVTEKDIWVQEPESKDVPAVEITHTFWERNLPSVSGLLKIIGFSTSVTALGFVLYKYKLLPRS
Sequence of Human recombinant MAO B (P27338 whole entry): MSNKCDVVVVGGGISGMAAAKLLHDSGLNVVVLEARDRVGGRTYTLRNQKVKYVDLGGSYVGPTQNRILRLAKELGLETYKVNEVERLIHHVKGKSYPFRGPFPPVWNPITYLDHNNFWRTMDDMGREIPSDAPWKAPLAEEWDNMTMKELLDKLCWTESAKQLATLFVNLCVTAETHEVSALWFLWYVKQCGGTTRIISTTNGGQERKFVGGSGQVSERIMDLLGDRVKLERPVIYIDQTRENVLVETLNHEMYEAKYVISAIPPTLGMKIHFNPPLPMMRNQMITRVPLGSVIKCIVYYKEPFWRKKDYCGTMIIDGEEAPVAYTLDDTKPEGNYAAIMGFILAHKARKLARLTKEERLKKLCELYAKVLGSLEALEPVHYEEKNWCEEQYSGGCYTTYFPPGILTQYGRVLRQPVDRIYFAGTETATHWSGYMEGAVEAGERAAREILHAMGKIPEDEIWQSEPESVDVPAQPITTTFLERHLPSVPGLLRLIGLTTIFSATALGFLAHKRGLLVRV

| Molecule | MAO B inhibition (Human recombinant MAO B) | MAO A inhibition (Human recombinant MAO A) | LSD2 inhibition (Mouse recombinant LSD2) | further results |
| --- | --- | --- | --- | --- |
| CC(C)C(NC(=O)OCc1ccccc1)C(=O)Nc1ccc([C@@H]2C[C@H]2N)cc1 (relative stereo) (as salt: hydrochloride) [Compound 6a, trans benzyl 1-(4-(2-aminocyclopropyl)phenylamino)-3-methyl-1-oxobutan-2-ylcarbamate] |  |  |  | melting point: 168 to 170 °C |
| CC(C)CC(NC(=O)OCc1ccccc1)C(=O)Nc1ccc([C@@H]2C[C@H]2N)cc1 (relative stereo) (as salt: hydrochloride) [Compound 6b, trans benzyl 1-(4-(2-aminocyclopropyl)phenylamino)-4-methyl-1-oxopentan-2-ylcarbamate] |  |  |  | melting point: 158 to 160 °C |
| N[C@@H]1C[C@H]1c1ccc(NC(=O)OCc2ccccc2)cc1 (relative stereo) [Compound 5a, trans benzyl 4-(2-aminocyclopropyl)phenylcarbamate] |  |  |  | pKi (Mouse recombinant LSD2; 25° C.): 4.70 |
| N[C@@H]1C[C@H]1c1ccc(NC(=O)c2ccccc2)cc1 (relative stereo) [Compound 5b, trans N-(4-(2-aminocyclopropyl)phenyl)benzamide] |  |  |  | pKi (Mouse recombinant LSD2; 25° C.): 4.21 |
| CC(C)C(NC(=O)OCc1ccccc1)C(=O)Nc1ccc([C@@H]2C[C@H]2N)cc1 (relative stereo) [Compound 6a, trans benzyl 1-(4-(2-aminocyclopropyl)phenylamino)-3-methyl-1-oxobutan-2-ylcarbamate] | − | + | + | LSD1 inhibition [1]: + |
| CC(C)CC(NC(=O)OCc1ccccc1)C(=O)Nc1ccc([C@@H]2C[C@H]2N)cc1 (relative stereo) [Compound 6b, trans benzyl 1-(4-(2-aminocyclopropyl)phenylamino)-4-methyl-1-oxopentan-2-ylcarbamate] | − | + | + | LSD1 inhibition [1]: + |
| N[C@@H]1C[C@H]1c1ccc(NC(=O)C(Cc2ccccc2)NC(=O)OCc2ccccc2)cc1 (relative stereo) [Compound 6e, trans benzyl 1-(4-(2-aminocyclopropyl)phenylamino)-1-oxo-3-phenylpropan-2-ylcarbamate] |  |  |  | MAO B Ki (Human recombinant MAO B): no inhibition^d |
| Cl.N[C@@H]1C[C@H]1c1ccc(NC(=O)CCCCCCC(=O)NO)cc1 (relative stereo) [Compound 9, trans N^1-(4-(2-aminocyclopropyl)phenyl)-N^8-hydroxyoctanediamide] |  |  |  | MAO B inhibition (Human recombinant MAO B; 50 mM Hepes/NaOH pH 7.5, 0.5% reduced Triton X-100, max inhibitor concentration 1 mM or saturated solution): +; LSD1 inhibition ([1]; 25° C., 50 mM Hepes/NaOH pH 7.5, max inhibitor concentration 1 mM or saturated solution): +; LSD2 inhibition (Mouse recombinant LSD2; 25° C., 50 mM Hepes/NaOH pH 8.0, max inhibitor concentration 1 mM or saturated solution): + |
| Cl.NC1CC1c1ccc(NC(=O)C(Cc2ccccc2)NC(=O)OCc2ccc(Br)cc2)cc1 (stereo not drawn) [Compound 7, trans 4-bromobenzyl 1-(4-(2-aminocyclopropyl)phenylamino)-1-oxo-3-phenylpropan-2-ylcarbamate] | − |  |  | MAO B Ki (Human recombinant MAO B): no inhibition^d; melting point: 220 to 222 °C |
| Cl.NC1CC1c1ccc(NC(=O)C(Cc2ccccc2)NC(=O)OCc2ccccc2)cc1 (stereo not drawn) [Compound 8, cis benzyl 1-(4-(2-aminocyclopropyl)phenylamino)-1-oxo-3-phenylpropan-2-ylcarbamate] | − |  |  | MAO B Ki (Human recombinant MAO B): no inhibition^d |
| CN(C(=O)C(Cc1ccccc1)NC(=O)OCc1ccccc1)c1ccc(C2CC2N)cc1.Cl (stereo not drawn) [Compound 12, trans benzyl 1-((4-(2-aminocyclopropyl)phenyl)(methyl)amino)-1-oxo-3-phenylpropan-2-ylcarbamate] | − | + | + | MAO B Ki (Human recombinant MAO B): no inhibition^d |
| Cl.NC1CC1c1ccc(NC(=O)C(Cc2ccccc2)NC(=O)NCc2ccccc2)cc1 (stereo not drawn) [Compound 16, trans N-(4-(2-aminocyclopropyl)phenyl)-2-(3-benzylureido)-3-phenylpropanamide] | + | + | + | melting point: 153 to 155 °C |
| CC1=C(/C=C/C(C)=C/C=C/C(C)=C/C(=O)O)C(C)(C)CCC1 [RA, retinoic acid] |  |  |  | differentiating effect of RA alone (NB4 cells): almost totally ineffective |
| trans benzyl 1-(4-(2- aminocycylpropyl)phenylamino)-3- (napththalen-1-yl)-1-oxopropan-2- ylcarbamate [Compound 6j] | − | + | + | LSD1 inhibition [1]: + |
